These results are taken from patent US10532082B2, “SOCS1-derived peptide for use in chronic complications of diabetes” (Fundació Hospital Universitari Vall d'Hebron-Institut de …, priority 2014, dated 2020).

Where no end group is shown, it is not given here. [ ]: non-standard residue; d: D form. lysine‑palmitate = lysine-palmitate bound at the N-terminal end; pY = N[C@@H](Cc1ccc(OP(=O)(O)O)cc1)C(=O)O

The subject of series [1] is diabetic mice (db/db). The experiment in a line: Electroretinogram (ERG) recordings, topical eye drops. As to conditions: eye drops 15 days. It is filed as in vivo. The method, then: 8-week old diabetic mice (db/db) received the miS1 peptide in the form of eye drops (5 μL drops in each eye; 10 mg/mL; twice a day for 15 days; n=7 mice). Diabetic mice treated with the non-functional peptide Mut (n=7), treated with vehicle and non-diabetic mice (db/+) were used as controls. The eye drops were directly administered on the upper surface of the cornea of each eye using a micropipette. The weight and glycemia (colorimetric assay) were controlled throughout the study period. On day 15, the drop with the miS1 peptide or vehicle was administered about two hours before autopsy. […]
Electroretinogram (ERG) recordings were performed in darkness-adapted anesthetized mice (12 hours overnight). Focal electroretinogram (Ferg) recordings were measured using a Micron III Focal ERG system (Phoenix Research Labs, Pleasanton, Calif.). […] The ERG responses of both eyes were recorded in response to 20 ms white light stimuli. […] The ERG signals were amplified, the filtered band was between 0.5 and 1000 Hz, and was analyzed with LabScribe-2 software (BioSeb, Vitrolles, France) in order to calculate the a-wave and b-wave amplitude and implicit time, as recommended by the International Society of Clinical Electrophysiology of Vision (ISCEV) (Marmor et al Doc Ophtalmol 108: 107 a 144). […]

The test system of series [2] is diabetic mice (db/db). As to the kind of experiment: Disruption of the blood-retinal barrier, albumin extravasation. As to conditions: eye drops 50 μg in 5 μL/eye twice a day, 15 days. Type of series: in vivo. Here is the method: 8-week old diabetic mice (db/db) received the miS1 peptide in the form of eye drops (5 μL drops in each eye; 10 mg/mL; twice a day for 15 days; n=7 mice). Diabetic mice treated with vehicle (n=7) and non-diabetic mice (db/+) (n=7) were used as controls. The weight and glycemia (colorimetric assay) were controlled throughout the study period. The animals were euthanized on day 15 by cervical dislocation. The disruption of the BRB was evaluated by means of determining albumin permeability.
The paraffin sections were deparaffinized in xylene and rehydrated in a gradual series of ethanol. The sections were fixed in acidic methanol (−20° C.) for 1 minute and washed with 0.01 M PBS solution at pH 7.4. The sections were incubated in a blocking solution (2.5% dry, non-fat milk) for 30 minutes at room temperature. The sections were incubated with a goat anti-human serum albumin primary antibody (1:500, Abcam) overnight at 4° C. After one washing in PBS, the sections were incubated with an Alexa 594 donkey anti-goat secondary antibody (1:200, Molecular Probes) for 1 hour at room temperature. […] The immunofluorescence of albumin was analyzed by means of laser confocal microscopy (Olympus FluoView™ FV1000 confocal microscope, Hamburg, Germany).

The test system of series [3] is streptozotocin diabetic apoE-deficient mice. The experiment in a line: Metabolic and renal data in mice with type 1 diabetes, intraperitoneal treatment. It is filed as in vivo. As to conditions: STZ apoE mice, 65 μg/day i.p. every 2 days, 8 weeks. The method, then:
Apolipoprotein E (apoE)-deficient male mice of 8 weeks of age were made diabetic through streptozotocin injection (125 mg/kg weight in 10 mM citrate, pH 4.5, two consecutive days). After 2 weeks, animals with glycemia greater than 350 mg/dL were randomly distributed in two groups (n=9 animals per group): treated animals (miS1 peptide: 65 μg/day, 200 μL, intraperitoneally, every 2 days for 8 weeks) and controls (vehicle). The weight and glycemia (colorimetric assay) were controlled throughout the study period.
At the end of the study, the anesthetized animals were perfused with saline and sacrificed, processing the tissues immediately. In renal cortex (paraffin sections, 5 μm) the glomerular and tubulointerstitial morphology was studied by means of PAS and Masson trichrome staining and the lesions were evaluated in a double-blind and semi-quantitative manner in a scale of 0-3. Renal fibrosis was determined by means of Picro-Sirius red staining and the infiltrating inflammatory cells (F4/80+ macrophages and CD3+ T-lymphocytes) by immunohistochemistry. In the aorta, the root/arch zone (serial cryosections of 8 μm from the valves to an extension of 1000 μm) was stained with Oil-red-O/hematoxylin and the area of the atherosclerotic lesion was quantified (Metamorph program). Plaque stability was assessed by collagen fiber staining with Picro-Sirius red and α-actin immunofluorescence. The inflammatory component was determined by means of immunohistochemistry for monocyte/macrophages (Moma2). The Image Pro-Plus program was used for quantifying positive stainings. The biochemical parameters in serum (glycated hemoglobin, cholesterol and creatinine) and in urine (albumin and creatinine) were determined by means of conventional commercial kits.

Series [4] deals with RAW264.7 macrophages. As to the kind of experiment: Cytokine-induced CCL2 production in macrophages (ELISA). Type of series: cell-based, murine. As to conditions: pre-incubation with peptide, IFNγ and IL-6. Here is the method:
(§1) RAW264.7 macrophages and vascular smooth muscle cells (VSMC) cultured in a medium with 10% fetal bovine serum were used. The cells were synchronized (24 hours without serum), pre-incubated for 90 minutes with different peptide concentrations (miS1 or the control thereof, 50-150 μg/mL) and stimulated with cytokines (IFNγ […]). STAT activation was analyzed by means of Western blot for phosphorylated STAT1/STAT3 isoforms. JAK/STAT pathway-dependent chemokine (CCL2) expression was determined by means of ELISA. Cell viability was analyzed by MTT colorimetric assay and macrophage migration was analyzed by chemotaxis assay.
Background: ELISA stands for enzyme-linked immunosorbent assay.

The test system of series [5] is vascular smooth muscle cells (VSMC). The experiment in a line: Cytokine-induced CCL2 production in VSMC (ELISA). It is filed as cell-based, mouse. As to conditions: pre-incubation with peptide, IFNγ and IL-6. The method, then: as §1
In series [6] the test system is RAW264.7 macrophages. The experiment in a line: Macrophage migration chemotaxis assay. As to conditions: chemotaxis assays. It is filed as cell-based, murine. Here is the method: as §1

As for “miS1: SEQ ID NO 1 DTHFRTFRSHSDYRRI, kinase inhibitory region of murine SOCS1, bound to lysine-palmitate at the N-terminal end, tyrosine phosphorylated ({lysine‑palmitate}-DTHFRTFRSHSD[pY]RRI)”, in the series with diabetic mice (db/db) [1] (diabetes-induced increase), the “ERG a-wave and b-wave implicit time” value is reported as “declines”. Besides, the “ERG a-wave and b-wave amplitude” value with diabetic mice (db/db) [1] (diabetes-induced reduction) is listed as “declines the reduction”. Moreover, in the series with diabetic mice (db/db) [2], the “albumin extravasation (vascular permeability)” value is reported as “prevented”. Further, the “weight loss caused by chronic diabetes” value in series [3] is listed as “less pronounced”. In series [3] (end of study), this substance showed an ALT of 97 ± 17 U/L, an AST of 176 ± 20 U/L, a Blood glucose of 549 ± 29 mg/dL and a GHbA1c of 503 ± 76 µg/mL. Besides, in series [3] (end of study), the HDL cholesterol is on record as 11 ± 1 mg/dL, the LDL cholesterol is reported as 597 ± 61 mg/dL, the Total cholesterol was determined as 611 ± 59 mg/dL and the Triglycerides was determined as 89 ± 23 mg/dL. For the same substance, in series [3] (end of study), the Weight is 21.9 ± 0.6 g. The Urine albumin-creatinine ratio in series [3] (p < 0.01 vs control) stood at 16.2 ± 61.1 µg/µmol. Further, the Serum creatinine in series [3] (p < 0.02 vs control) is 0.24 ± 0.04 mg/dL. For the same substance, the Kidney-body mass ratio in series [3] (p < 0.05 vs control) amounted to 16.4 ± 1.3 mg/g. In addition, the “decrease in albumin levels (renal function)” value in series [3] (vs vehicle) was 28%. In addition, the “reduction of cytokine-induced CCL2 production” value with RAW264.7 macrophages [4] is 30-40%. Also, the “reduction of cytokine-induced CCL2 production” value in series [5] was 30-40%. In addition, in the series on RAW264.7 macrophages [6], the macrophage migration entry is reported as “anti-migratory effect”.
